Laboratory results published in patent US20090298800A1, “1,25-DIHYDROXY, 20-CYCLOPROPYL,26-27-DEUTEROALKYL VITAMIN D3 COMPOUNDS AND METHODS OF USE THEREOF” (BioXell S.p.A., priority 2005, published 2009).

Columns and labels:
HT 1376 = experiment: Proliferation assay, bladder cancer cell line HT1376; assay type: cell-based; conditions: Homo sapiens, 72 h culture, CyQuant proliferation assay
Procedure: (§1) Bladder cancer cell lines (T24, RT112, HT1376 and RT4 are human bladder cancer cell lines; NHEK are normal human keratinocytes) were obtained from the European Collection of Cell Cultures (Salisbury, UK). Cells were plated at 3×10^3 per well, in flat bottomed 96-well plates in 100 μl of DMEM medium containing: 5% Fetal Clone i, […] gentamicin, 1 mM sodium pyruvate and 1% non-essential amino acids. After culturing for 24 h at 37° C. in 5% CO2, to allow cells to adhere to the plates, VDR ligands (compounds (1)-(9)) were added at concentrations ranging from 100 μM to 0.3 μM in 100 μl of above-mentioned complete medium. After a further 72 h of culture, cell proliferation was measured using a fluorescence-based proliferation assay kit. (CyQuant Cell Proliferation Assay Kit, Molecular Probes, Eugene, Oreg., USA). The IC50 was calculated from the regression curve of the titration data.

RT112 = experiment: Proliferation assay, bladder cancer cell line RT112; assay type: cell-based, human; conditions: 72 h culture, CyQuant proliferation assay
Procedure: as §1

RT4 = experiment: Proliferation assay, bladder cancer cell line RT4; assay type: cell-based, human; conditions: 72 h culture, CyQuant proliferation assay
Procedure: as §1

NHEK = experiment: Proliferation assay, normal human keratinocytes NHEK; assay type: cell-based; conditions: 72 h culture, CyQuant proliferation assay
Procedure: as §1

IFN-γ production = IFN-γ production in the mixed leukocyte response (MLR) of allogeneic PBMC; assay type: cell-based; conditions: 120 h, 5 days, ELISA, read-out: INF-γ IC50
Procedure: Immature dendritic cells (DC) were prepared as described in Romani, N. et al. (Romani, N. et al. (1996) J. Immunol. Methyl. 196:137). IFN-γ production by allogeneic T cell activation in the mixed leukocyte response (MLR) was determined as described in Penna, G., et al., J Immunol., 164: 2405-2411 (2000).
Briefly, peripheral blood mononuclear cells (PBMC) were separated from buffy coats by Ficoll gradient and the same number (3×10^5) of allogeneic PBMC from 2 different donors were co-cultured in 96-well flat-bottom plates. The vitamin D3 compounds were added to each of the cultures. After 5 days, IFN-γ production in the MLR assay was measured by ELISA and the results expressed as amount (nM) of test compound required to induce 50% inhibition of IFN-γ production (IC50).

Renin mRNA = Renin mRNA inhibition in murine juxtaglomerular cell line As4.1; assay type: cell-based; conditions: Mus musculus, As4.1 cells treated 24 h at 10^−8, 10^−9 and 10^−10 M, real time PCR normalized to β-actin, read-out: Renin mRNA inh.As4.1/wt
Procedure: As4.1 cells (80% subconfluent) were treated in complete medium with compounds of the invention at 10^−8,10^−9 and 10^−10 M for 24 h. Total RNA was extracted using RNeasy Mini kit (Qiagen); treated with DNase I (Qiagen) and Reverse Transcription Reagent (Applied Biosystems) with Random Examers were used for reverse transcription according to the manufacturers' instructions. Real Time PCR analysis was performed in multiplex using commercially available β-actin VIC-conjugated probe (cat. n. 4352341E, Applied Biosystems) and custom designed mRENIN FAM-conjugated probe (Assay by Design, Applied Biosystems; Forward: […]; Reverse: […]; Probe: FAM-[…]-MGB). Reactions were performed in a 25 μL volume containing 12.5 μl […] (Applied Biosystems), 10 ng/reaction/well cDNA, and 2.5 μM each gene-specific primer. An ABI PRISM 7700 analyzer (Applied Biosystems) was used at 50° C. for 2 minutes and 95° C. for 10 minutes, followed by 40 cycles at 95° C. for 15 seconds and 60° C. for 1 minute. Cycle threshold (Ct) values were exported onto Excel worksheets for analysis. Test cDNA results were normalized versus mouse β-actin housekeeping gene. Fold differences in gene expression between the subtracted versus the unsubtracted populations were expressed using the method of 2^−ΔΔCt. (Table 4)

[1] = Determination of Maximum Tolerated Dose (MTD) in mice (serum calcium); assay type: in vivo; conditions: mouse, po; female C57BL/6 mice, p.o. daily for four days; highest dose without hypercalcemia (serum calcium>10.7 mg/dl)
Procedure: The maximum tolerated dose of the vitamin D3 compounds of the invention were determined in eight week-old female C57BL/6 mice (3 mice/group) dosed orally (0.1 ml/mouse) with various concentrations of Vitamin D3 analogs daily for four days. Analogs were formulated in miglyol for a final concentration of 0.01, 0.03, 0.1, 0.3, 1, 3, 10, 30, 100 and 300 μg/kg when given at 0.1 ml/mouse p.o. daily. Blood for serum calcium assay was drawn by tail bleed on day five, the final day of the study. Serum calcium levels were determined using a colorimetric assay (Sigma Diagnostics, procedure no. 597). The highest dose of analog tolerated without inducing hypercalcemia (serum calcium>10.7 mg/dl) was taken as the maximum tolerated dose (MTD).

Compound: C=C1/C(=C\C=C2/CCC[C@]3(C)C([C@H](C)CCCC(C)(C)O)CC[C@@H]23)C[C@@H](O)C[C@@H]1O (stereo partly drawn) [1,25(OH)2D3, 1,25-dihydroxycholecalciferol, reference compound]
- IC50 (HT 1376): 50 µM
- IC50 (RT112): 28.7 µM
- IC50 (RT112; Homo sapiens, RT-112, 72 h): 19 µM
- IC50 (RT4): 26 µM
- IC50 (RT4; Homo sapiens, RT-4, 72 h): 45 µM
- IC50 (NHEK): 4.5 µM
- IC50 (IFN-γ production): 49.6 pM

Compound: [2H]C([2H])([2H])C(O)(CCCC1([C@H]2CCC3/C(=C/C=C4C[C@@H](O)C[C@H](O)C4)CCC[C@@]32C)CC1)C([2H])([2H])[2H] (stereo partly drawn) [Compound 1, 1,25-Dihydroxy-20-cyclopropyl-26,27-hexadeutero-19-nor-cholecalciferol]
- IC50 (Renin mRNA): 0.155 µM
- IC50 (RT112; Homo sapiens, RT-112): > 30 µM
- IC50 (RT4; Homo sapiens, RT-4): 11.7 µM
- IC50 (NHEK): 5.6 µM
- IC50 (IFN-γ production): 51 pM
- MTD at 4 days [1]: 0.03 mg/kg

Compound: [2H]C([2H])([2H])C(O)(CCCC1([C@H]2CCC3/C(=C/C=C4C[C@@H](OC(C)=O)C[C@H](OC(C)=O)C4)CCC[C@@]32C)CC1)C([2H])([2H])[2H] (stereo partly drawn) [Compound 2, 1,3-Di-O-acetyl-1,25-dihydroxy-20-cyclopropyl-26,27-hexadeutero-19-nor-cholecalciferol]
- IC50 (Renin mRNA): 0.102 µM
- IC50 (RT112; Homo sapiens, RT-112): 16.3 µM
- IC50 (RT4; Homo sapiens, RT-4): 3.1 µM
- IC50 (NHEK): 7.2 µM
- IC50 (IFN-γ production): 388 pM
- MTD at 4 days [1]: 0.03 mg/kg

Compound: [2H]C([2H])([2H])C(O)(CCCC1([C@H]2CCC3/C(=C/C=C4/C[C@@H](O)C[C@H](O)C4=C)CCC[C@@]32C)CC1)C([2H])([2H])[2H] (stereo partly drawn) [Compound 3, 1,25-Dihydroxy-20-cyclopropyl-26,27-hexadeutero-cholecalciferol]
- IC50 (Renin mRNA): 0.0429 µM
- IC50 (RT112; Homo sapiens, RT-112): 19.7 µM
- IC50 (RT4; Homo sapiens, RT-4): 2.9 µM
- IC50 (NHEK): 6.6 µM
- IC50 (IFN-γ production): 65 pM
- MTD at 4 days [1]: 0.03 mg/kg

Compound: [2H]C([2H])([2H])C(O)(CCCC1([C@H]2CCC3/C(=C/C=C4/C[C@@H](OC(C)=O)C[C@H](OC(C)=O)C4=C)CCC[C@@]32C)CC1)C([2H])([2H])[2H] (stereo partly drawn) [Compound 4, 1,3-Di-O-acetyl-1,25-dihydroxy-20-cyclopropyl-26,27-hexadeutero-cholecalciferol]
- IC50 (Renin mRNA): 0.274 µM
- IC50 (RT112; Homo sapiens, RT-112): 18.7 µM
- IC50 (RT4; Homo sapiens, RT-4): 3 µM
- IC50 (NHEK): 5.6 µM
- IC50 (IFN-γ production): 464 pM
- MTD at 4 days [1]: 0.03 mg/kg

Compound: [2H]C([2H])([2H])C(O)(CCCC1([C@H]2CCC3/C(=C/C=C4/C[C@@H](O)C[C@H](F)C4=C)CCC[C@@]32C)CC1)C([2H])([2H])[2H] (stereo partly drawn) [Compound 5, 1α-Fluoro-25-hydroxy-20-cyclopropyl-26,27-hexadeutero-cholecalciferol]
- IC50 (RT112; Homo sapiens, RT-112): 15.7 µM
- IC50 (RT4; Homo sapiens, RT-4): 3.1 µM
- IC50 (NHEK): 4.7 µM
- IC50 (IFN-γ production): > 10000 pM
- MTD at 4 days [1]: 0.1 mg/kg

Compound: [2H]C([2H])([2H])C(O)(CCCC1([C@H]2CCC3/C(=C/C=C4/C[C@@H](OC(C)=O)C[C@H](F)C4=C)CCC[C@@]32C)CC1)C([2H])([2H])[2H] (stereo partly drawn) [Compound 6, 3-O-acetyl-1α-fluoro-25-hydroxy-20-cyclopropyl-cholecalciferol]
- IC50 (Renin mRNA): 0.00448 µM
- IC50 (RT112; Homo sapiens, RT-112): 19.7 µM
- IC50 (RT4; Homo sapiens, RT-4): 4.5 µM
- IC50 (NHEK): 5.6 µM
- IC50 (IFN-γ production): 747 pM
- MTD at 4 days [1]: 0.03 mg/kg

Compound: [2H]C([2H])([2H])C(O)(CCCC1(C2=CCC3/C(=C/C=C4/CC(O)C[C@H](O)C4)CCC[C@]23C)CC1)C([2H])([2H])[2H] (stereo partly drawn) [Compound 7, 1,25-Dihydroxy-16-ene-20 cyclopropyl-26,27-hexadeutero-19-nor-cholecalciferol]
- IC50 (Renin mRNA): 0.00736 µM
- IC50 (RT112; Homo sapiens, RT-112): > 30 µM
- IC50 (RT4; Homo sapiens, RT-4): 8.9 µM
- IC50 (NHEK): > 10 µM
- IC50 (IFN-γ production): 32 pM
- MTD at 4 days [1]: 0.001 mg/kg

Compound: [2H]C([2H])([2H])C(O)(CCCC1(C2=CCC3/C(=C/C=C4/CC(O)C[C@H](O)C4=C)CCC[C@]23C)CC1)C([2H])([2H])[2H] (stereo partly drawn) [Compound 8, 1,25-Dihydroxy-16-ene-20-cyclopropyl-26,27-hexadeutero-cholecalciferol]
- IC50 (Renin mRNA): 0.00489 µM
- IC50 (RT112; Homo sapiens, RT-112): ≥ 30 µM
- IC50 (RT4; Homo sapiens, RT-4): 2.4 µM
- IC50 (NHEK): 7 µM
- IC50 (IFN-γ production): 63 pM
- MTD at 4 days [1]: 0.01 mg/kg

Compound: [2H]C([2H])([2H])C(O)(CCCC1(C2=CCC3/C(=C/C=C4/CC(O)C[C@H](F)C4=C)CCC[C@]23C)CC1)C([2H])([2H])[2H] (stereo partly drawn) [Compound 9, 1α-Fluoro-25-hydroxy-16-ene-20-cyclopropyl-26,27-hexadeutero-cholecalciferol]
- IC50 (Renin mRNA): 0.0128 µM
- IC50 (RT112; Homo sapiens, RT-112): ≥ 30 µM
- IC50 (RT4; Homo sapiens, RT-4): 4.3 µM
- IC50 (NHEK): 7 µM
- IC50 (IFN-γ production): 492 pM
- MTD at 4 days [1]: 0.01 mg/kg
